# Experimental data from the supplement of paper PMC11208160.
# Experiment: recombinant barcode read abundance after kanamycin selection (control-corrected) (log10(CPM+1)); higher = more efficient recombination; sequences stand for … in AGTGCAGAGAAAATCGGCCAGTTTTCTCTGCCTGCAGTCCGCATGCCGT…AGATTTATGCAGCGGACTGCCTTTCTCCCAAAGTGATAAACCGGACAGTATCATGGACCGGTTTTCCCGGTAATCCGTATTTGCAAGGTTGGTTTCACT; site = the 11-nt target
# Summary of the method: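 Recombination efficiency draws on barcodes counted at recombinant junctions in a pooled E. coli screen of targets paired with IS621 bridge RNA target-binding loops. The counts were converted to counts per million, averaged and corrected against the chloramphenicol/ampicillin LB agar control, then reported as log10(CPM+1). Selection plates held chloramphenicol/ampicillin/kanamycin with 0.1 mM IPTG, with two replicates per condition.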
# 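Further: IS621 recombinase and bridge RNA in Escherichia coli cells.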
row,Sequence,recombinant barcode read abundance (log10)
1,GATCTAGCTTGGGTTCTAACCTGTTGCAT (site GATCTAGCTAT),0.574
2,GATGAGTCTTGGGTTCTAACCTGTTGCTT (site GATGAGTCTAA),1.8
3,GATGAGTCTTGGGTTCTAACCTGTTGCTT (site GATGAGTCTAG),1.34
4,GATGATACTTGGGTTCTAACCTGTTGCGT (site GATGATACTAC),2.51
5,GATGATACTTGGGTTCTAACCTGTTGCGT (site GTTTATACTAC),0.0738
6,GATGCCACTTGGGTTCTAACCTGTTGCCT (site GATCCCACTAG),0.182
7,GATGCCACTTGGGTTCTAACCTGTTGCCT (site GATGCCACTAG),1.53
8,GATGGTACTTGGGTTCTAACCTGTTGCAT (site ACGCACTCTCG),0.0471
9,GATGGTACTTGGGTTCTAACCTGTTGCAT (site GATGGTACTAT),1.46
10,GATGTATCTTGGGTTCTAACCTGTTGCCT (site GAGGTAGCTAG),0.0384
11,GATGTATCTTGGGTTCTAACCTGTTGCCT (site GATGTATCTAG),1.09
12,GATTATTCTTGGGTTCTAACCTGTTGCCT (site GAATATTCTAG),0.0621
13,GATTATTCTTGGGTTCTAACCTGTTGCCT (site GACTATTCTAG),0.0521
14,GATTATTCTTGGGTTCTAACCTGTTGCCT (site GAGTATTCTAG),0.138
15,GATTATTCTTGGGTTCTAACCTGTTGCCT (site GATTATTCTAG),0
16,GATTCGACTTGGGTTCTAACCTGTTGCGT (site CTGGACCCTCG),0.0133
17,GATTCGACTTGGGTTCTAACCTGTTGCGT (site GATTCGACTAC),1.02
18,GATTCTCCTTGGGTTCTAACCTGTTGCAT (site GATTCTCCTAA),0.246
19,GATTCTCCTTGGGTTCTAACCTGTTGCAT (site GATTCTCCTAC),0.143
20,GATTCTCCTTGGGTTCTAACCTGTTGCAT (site GATTCTCCTAG),0.0815
21,GATTCTCCTTGGGTTCTAACCTGTTGCAT (site GATTCTCCTAT),0.197
22,GATTCTTCTTGGGTTCTAACCTGTTGCCT (site GATTCTTCTAG),0.1

row,Sequence,recombinant barcode read abundance (log10)
1,GATTCTTCTTGGGTTCTAACCTGTTGCCT (site GCTTCTTCTAG),0.024
2,GATTCTTCTTGGGTTCTAACCTGTTGCCT (site GGTTCTTCTAG),0.232
3,GATTCTTCTTGGGTTCTAACCTGTTGCCT (site GTTTCTTCTAG),0
4,GATTGGACTTGGGTTCTAACCTGTTGCTT (site AATTGGACTAA),0.38
5,GATTGGACTTGGGTTCTAACCTGTTGCTT (site CATTGGACTAA),0.421
6,GATTGGACTTGGGTTCTAACCTGTTGCTT (site GATTGGACTAA),0.661
7,GATTGGACTTGGGTTCTAACCTGTTGCTT (site TATTGGACTAA),0.128
8,GCAAAGCCTTGGGTTCTAACCTGTTGCCT (site GCAAAGCCTAG),1.18
9,GCAAAGCCTTGGGTTCTAACCTGTTGCCT (site GCACAGACTAG),0.195
10,GCAAGGACTTGGGTTCTAACCTGTTGCAG (site GCAAGGACTCT),2.6
11,GCAAGGACTTGGGTTCTAACCTGTTGCAG (site GCACGGACTCT),0.165
12,GCAAGGACTTGGGTTCTAACCTGTTGCAG (site GCAGGGACTCT),0.76
13,GCAAGGACTTGGGTTCTAACCTGTTGCAG (site GCATGGACTCT),0.587
14,GCAAGGCCTTGGGTTCTAACCTGTTGCCT (site ACAAGGCCTAG),0.0435
15,GCAAGGCCTTGGGTTCTAACCTGTTGCCT (site CCAAGGCCTAG),0.721
16,GCAAGGCCTTGGGTTCTAACCTGTTGCCT (site GCAAGGCCTAG),0.418
17,GCAAGGCCTTGGGTTCTAACCTGTTGCCT (site TCAAGGCCTAG),0.0143
18,GCAATTACTTGGGTTCTAACCTGTTGCTT (site GCAATTACTAA),0.0238
19,GCAATTACTTGGGTTCTAACCTGTTGCTT (site TGGGGCCCTCG),0.078
20,GCACCACCTTGGGTTCTAACCTGTTGCCT (site GCACAACCTAG),0.0145
21,GCACCACCTTGGGTTCTAACCTGTTGCCT (site GCACCACCTAG),1.06
22,GCACCACCTTGGGTTCTAACCTGTTGCCT (site GCACGACCTAG),0.178

row,Sequence,recombinant barcode read abundance (log10)
1,GCACCACCTTGGGTTCTAACCTGTTGCCT (site GCACTACCTAG),0.127
2,GCACCGCCTTGGGTTCTAACCTGTTGCCT (site ACACCGCCTAG),0.667
3,GCACCGCCTTGGGTTCTAACCTGTTGCCT (site CCACCGCCTAG),0.0991
4,GCACCGCCTTGGGTTCTAACCTGTTGCCT (site GCACCGCCTAG),1.09
5,GCACCGCCTTGGGTTCTAACCTGTTGCCT (site TCACCGCCTAG),0.0378
6,GCACGCCCTTGGGTTCTAACCTGTTGCCT (site GCACGCCCTAG),0.711
7,GCACGCCCTTGGGTTCTAACCTGTTGCCT (site TCCCGCCCTAG),0.0743
8,GCACGCCCTTGGGTTCTAACCTGTTGCTT (site GCACGCCCTAA),0.737
9,GCACGCCCTTGGGTTCTAACCTGTTGCTT (site GCGCGGCCTAA),0.181
10,GCACTCCCTTGGGTTCTAACCTGTTGCCT (site GCACTCCCTAG),0.0516
11,GCACTCCCTTGGGTTCTAACCTGTTGCCT (site GCCCTCCCTAG),0.0585
12,GCACTCCCTTGGGTTCTAACCTGTTGCCT (site GCGCTCCCTAG),0.199
13,GCACTCCCTTGGGTTCTAACCTGTTGCCT (site GCTCTCCCTAG),0.831
14,GCAGAGTCTTGGGTTCTAACCTGTTGCCT (site GAAGAGTCTAG),0.201
15,GCAGAGTCTTGGGTTCTAACCTGTTGCCT (site GCAGAGTCTAG),2.1
16,GCAGAGTCTTGGGTTCTAACCTGTTGCCT (site GGAGAGTCTAG),0.0924
17,GCAGAGTCTTGGGTTCTAACCTGTTGCCT (site GTAGAGTCTAG),1.06
18,GCAGGGACTTGGGTTCTAACCTGTTGCCT (site GAAGGGACTAG),0.56
19,GCAGGGACTTGGGTTCTAACCTGTTGCCT (site GCAGGGACTAG),1.9
20,GCAGGGACTTGGGTTCTAACCTGTTGCCT (site GGAGGGACTAG),0.313
21,GCAGGGACTTGGGTTCTAACCTGTTGCCT (site GTAGGGACTAG),1.02
22,GCAGGTACTTGGGTTCTAACCTGTTGCCT (site ACAGGTACTAG),0.508

row,Sequence,recombinant barcode read abundance (log10)
1,GCAGGTACTTGGGTTCTAACCTGTTGCCT (site CCAGGTACTAG),0.401
2,GCAGGTACTTGGGTTCTAACCTGTTGCCT (site GCAGGTACTAG),1.17
3,GCAGGTACTTGGGTTCTAACCTGTTGCCT (site TCAGGTACTAG),0.466
4,GCAGGTGCTTGGGTTCTAACCTGTTGCTT (site ATTTCGACTCC),0.0721
5,GCAGGTGCTTGGGTTCTAACCTGTTGCTT (site GCAGGTGCTAA),1.75
6,GCATACACTTGGGTTCTAACCTGTTGCCA (site GCATACACTTG),1.48
7,GCATACACTTGGGTTCTAACCTGTTGCCA (site TGCAGGGCTCC),0.0903
8,GCATCTACTTGGGTTCTAACCTGTTGCTA (site CATAACGCTAG),0.185
9,GCATCTACTTGGGTTCTAACCTGTTGCTA (site GCATCTACTTA),0.0861
10,GCCAAACCTTGGGTTCTAACCTGTTGCTA (site GCCAAACCTTA),0.0929
11,GCCAAACCTTGGGTTCTAACCTGTTGCTA (site GTCAAGCCTTA),0.176
12,GCCAGACCTTGGGTTCTAACCTGTTGCCT (site GCCAAACCTAG),0.0596
13,GCCAGACCTTGGGTTCTAACCTGTTGCCT (site GCCACACCTAG),0.0708
14,GCCAGACCTTGGGTTCTAACCTGTTGCCT (site GCCAGACCTAG),0.373
15,GCCAGACCTTGGGTTCTAACCTGTTGCCT (site GCCATACCTAG),0.112
16,GCCAGCTCTTGGGTTCTAACCTGTTGCTG (site CAATTTCCTAT),0.169
17,GCCAGCTCTTGGGTTCTAACCTGTTGCTG (site GCCAGCTCTCA),0.581
18,GCCATAACTTGGGTTCTAACCTGTTGCCT (site GCCATAACTAG),0.0347
19,GCCATAACTTGGGTTCTAACCTGTTGCCT (site GCCATCACTAG),0.0218
20,GCCATAACTTGGGTTCTAACCTGTTGCCT (site GCCATGACTAG),0.256
